The record followed here is patent publication US4440904A, “Nonapeptide anti-secretory agents” (American Home Products Corporation, priority 1983, dated 1984).

In test [1] the test system is growth hormone (GH). Description: Growth hormone suppression in arginine-stimulated, Nembutal-anesthetized rats (GH by radioimmunoassay). The test is classed as in vivo, rat. Conditions: for GH: albino male rats, time 15 minutes, arginine stimulation, saline control 90 ± 14, *p <0.01. The method, then:
The product of the preceding example illustrates the activity of the compounds of this invention for growth hormone suppression in the following standard procedure:
Albino male rats are administered Nembutal intraperitoneally at a dose of 50 milligrams per kilogram. Fifteen minutes later a subcutaneous injection of the compound of Example 2 or physiological saline (control) is administered. Ten minutes later 0.5 milliliters of arginine (300 milligrams per milliliter, pH 7.2) is injected into the heart. Five minutes after receipt of the arginine the rats are decapitated and blood is collected into trasylol-EDTA. An appropriate aliquot is assayed for growth hormone (GH) by radioimmunoassay.

The subject of test [2] is total acid output. Description: Gastric anti-secretory activity in pylorus-ligated rats. The test is classed as in vivo, rat. Conditions: male Sprague-Dawley rats, pyloric ligation, 2 milligram per kilogram subcutaneous, four-hour test period. As to the method:
Male Charles River rats of Sprague-Dawley strain and 190 to 240 grams body weight are food deprived for 24 hours with water ad libitum until the test. Groups of ten rats each are assigned to either control or drug treatment. Pyloric ligation was performed under ether anesthesia through a midline laparotomy, and either control vehicle (0.25 methylcellulose) or drug in control vehicle was administered subcutaneously. The rats are sacrificed by CO2 asphyxiation four hours after pyloric ligation. The stomachs are removed and the gastric contents emptied into graduated centrifuge tubes. The gastric samples are centrifuged for 20 minutes and those obviously contaminated by food, blood or feces are discarded. The volume of gastric fluid is recorded and the acid concentration of 1.0 milliliter sample aliquots is measured by electrometric titration to pH 7.0 with 0.1 N NaOH. The calculated product of gastric volume (ml/4 hr) and acid concentration (mEq/L) estimates the total acid output (TAO, mEq/4 hr) over the four-hour test period.

Bridge positions count the residues as written; N and C are the ends. Square brackets hold non-standard residues; d marks the D form. Peptide text beside a SMILES is read from it.

Turning to `C[C@@H](O)[C@@H]1NC(=O)[C@H](CCCCN)NC(=O)[C@@H](Cc2c[nH]c3ccccc23)NC(=O)[C@H](Cc2ccccc2)NC(=O)[C@@H](NC(=O)[C@H](Cc2ccc(O)cc2)NC(=O)[C@@H](N)Cc2c[nH]cn2)CSSC[C@@H](C(=O)N[C@@H](Cc2ccccc2)C(=O)O)NC1=O` [Example 2, L-Histidyl-L-tyrosyl-L-cysteinyl-L-phenylalanyl-D-tryptophyl-L-lysyl-L-threonyl-L-cysteinyl-L-phenylalanine cyclic (3-8) disulfide] (H-HYCF[dW]KTCF-OH; disulfide 3-8), the values for the GH in test [1] (dose 200 μg/kg subcutaneous) and in test [1] (dose 1,000 μg/kg subcutaneous) were 31 ± 10 ng/mL and 41 ± 8 ng/mL, respectively. Besides, the “growth hormone suppression potency compared with somatostatin” value in test [1] (rats, subcutaneous) is “substantially equipotent with somatostatin”. The “decrease of total acid output” value in test [2] turned out to be 73%.
Consider `C[C@H](N)C(=O)NCC(=O)N[C@H]1CSSC[C@@H](C(=O)O)NC(=O)[C@H](CO)NC(=O)[C@H]([C@@H](C)O)NC(=O)[C@H](Cc2ccccc2)NC(=O)[C@H]([C@@H](C)O)NC(=O)[C@H](CCCCN)NC(=O)[C@H](Cc2c[nH]c3ccccc23)NC(=O)[C@H](Cc2ccccc2)NC(=O)[C@H](Cc2ccccc2)NC(=O)[C@H](CC(N)=O)NC(=O)[C@H](CCCCN)NC1=O` [Somatostatin, reference compound], for which the GH in test [1] (dose 200 μg/kg subcutaneous) worked out at 34 ± 3 ng/mL.
